The record followed here is US20240245668A1, “AGENT FOR TREATING OR PREVENTING GLAUCOMA INCLUDING A SULFONAMIDE COMPOUND AND ANOTHER DRUG” (SANTEN PHARMACEUTICAL CO., LTD., priority 2012, published 2024).

Assay [1] has as its system rabbits with normal intraocular pressure. Put plainly: Intraocular pressure lowering effect, present compound and timolol concomitantly administered to rabbits. Format: in vivo, Japanese white rabbit. The note with it: male JW rabbits, instillation into one eye, 0.001 w/v % present compound solution 50 μL, Timoptol eye drop (0.5%) 50 μL. The source says: In order to study the usefulness of the combination of the present compound with a β-receptor antagonist, an intraocular pressure lowering effect when the present compound and timolol were concomitantly administered to experimental animals (rabbits with normal intraocular pressure) was examined.
An intraocular pressure lowering effect when the present compound and timolol were concomitantly administered was examined. As comparison subjects, intraocular pressure lowering effects when the present compound or timolol was administered singly were also examined. As a control, the base and physiological saline were administered.
Present compound solution: a 0.001 w/v % present compound solution (instillation amount: 50 μL) […]
(§1) • (1) One drop of a 0.4% oxybuprocaine hydrochloride eye drop (trade name: Benoxil (registered trademark) eye drop (0.4%)) was instilled into both eyes of each experimental animal to effect local anesthesia. • (2) Intraocular pressure was measured immediately before administering the test compound solution, and the measured intraocular pressure was defined as initial intraocular pressure. • (3) The present compound solution was instilled into one eye of each experimental animal (the other eye was not treated). […] The intraocular pressure was measured in triplicate for each eye to obtain an average of three measurements, which is shown as the result. […]

Assay [2] deals with monkeys with normal intraocular pressure. Put plainly: Intraocular pressure lowering effect, present compound and brinzolamide concomitantly administered to monkeys. In kind it is in vivo, Cynomolgus monkey. The note with it: male cynomolgus monkeys, instillation into one eye, 0.0006 w/v % present compound solution 20 μL, Azopt Ophthalmic Suspension (1%) 20 μL.
Text: In order to study the usefulness of a combination of the present compound with a carbonic anhydrase inhibitor, an intraocular pressure lowering effect when the present compound and brinzolamide were concomitantly administered to experimental animals (monkeys with normal intraocular pressure) was examined.
An intraocular pressure lowering effect when the present compound and brinzolamide were concomitantly administered was examined. As comparison subjects, intraocular pressure lowering effects when the present compound or brinzolamide was administered singly were also examined. As a control, the base and physiological saline were administered.
(§2) Present compound solution: a 0.0006 w/v % present compound solution (instillation amount: 20 μL) […]
as §1

Assay [3] has the same test system. Kind of assay: Intraocular pressure lowering effect, present compound and latanoprost concomitantly administered to monkeys. Format: in vivo, Cynomolgus monkey. The note with it: male cynomolgus monkeys, instillation into one eye, 0.0006 w/v % present compound solution 20 μL, Xalatan eye drop (0.005%) 20 μL.
Text: In order to study the usefulness of a combination of the present compound with a prostaglandin, an intraocular pressure lowering effect when the present compound and latanoprost were concomitantly administered to experimental animals (monkeys with normal intraocular pressure) was examined.
An intraocular pressure lowering effect when the present compound and latanoprost were concomitantly administered was examined. As comparison subjects, intraocular pressure lowering effects when the present compound or latanoprost was administered singly were also examined. As a control, the base and physiological saline were administered.
as §2
as §1, with “The intraocular measured in” for “The intraocular pressure was measured in”

Assay [4] shares this test system. Kind of assay: Intraocular pressure lowering effect, present compound and brimonidine concomitantly administered to monkeys. The note with it: male cynomolgus monkeys, instillation into one eye, 0.0006 w/v % present compound solution 20 μL, ALPHAGAN P (0.15%) 20 μL. In kind it is in vivo, Cynomolgus monkey.
Text: In order to study the usefulness of a combination of the present compound with an α2-receptor agonist, an intraocular pressure lowering effect when the present compound and brimonidine were concomitantly administered to experimental animals (monkeys with normal intraocular pressure) was examined.
An intraocular pressure lowering effect when the present compound and brimonidine were concomitantly administered was examined. As comparison subjects, intraocular pressure lowering effects when the present compound or brimonidine was administered singly were also examined. As a control, the base and physiological saline were administered.
as §2, §1

The structures appear in SMILES notation.

In the case of `CC(C)(C)NC[C@H](O)COc1nsnc1N1CCOCC1` [Timolol, timolol], in assay [1], the “Intraocular pressure lowering degree (change relative to average of control group) at 4 hours after instillation” value stood at 2.3 mmHg. For the molecule `CC(C)OC(=O)CNc1cccc(CN(Cc2ccc(-n3cccn3)cc2)S(=O)(=O)c2cccnc2)n1` [Present compound, isopropyl (6-{[4-(pyrazol-1-yl)benzyl](pyridin-3-ylsulfonyl)aminomethyl}pyridin-2-ylamino) acetate], the “Intraocular pressure lowering degree (change relative to average of control group) at 4 hours after instillation” value in assay [2] is on record as 2.5 mmHg; in assay [1], 1.6 mmHg. For the same molecule, the “Intraocular pressure lowering degree (change relative to average of control group) at 8 hours after instillation” value in assay [3] was found to be 1.6 mmHg. In addition, the “Intraocular pressure lowering degree (change relative to average of control group) at 2 hours after instillation” value in assay [4] came to 2.6 mmHg.

Consider `CC(C)OC(=O)CCC/C=C\C[C@@H]1[C@@H](CC[C@@H](O)CCc2ccccc2)[C@H](O)C[C@@H]1O` [Latanoprost, latanoprost], for which the “Intraocular pressure lowering degree (change relative to average of control group) at 8 hours after instillation” value in assay [3] was 1.5 mmHg. For `CCN[C@H]1CN(CCCOC)S(=O)(=O)c2sc(S(N)(=O)=O)cc21` [Brinzolamide, brinzolamide], the “Intraocular pressure lowering degree (change relative to average of control group) at 4 hours after instillation” value in assay [2] worked out at 1.6 mmHg. With `Brc1c(NC2=NCCN2)ccc2nccnc12` [Brimonidine, brimonidine], in assay [4], the “Intraocular pressure lowering degree (change relative to average of control group) at 2 hours after instillation” value came out at 1.8 mmHg.
